According to EPA's ToxValDB 9.5 (doi:10.2903/j.efsa.2011.2152):
In brackets after ≈: the same amount, converted by molar mass.

Assays:
[1] = test system: Coturnix japonica; details: acute; oral; mortality
[2] = test system: Rattus norvegicus
[3] = test system: Daphnia magna; details: chronic/long-term; duration: 21 days
[4] = test system: Oryctolagus sp.; details: reproduction developmental; body weight
[5] = test system: Oncorhynchus mykiss; details: acute; duration: 96 hours; mortality
[6] = test system: Tagia sp.; details: acute; duration: 14 days; mortality
[7] = test system: Bird; details: reproductive; mortality
[8] = test system: Cyprinus carpio; details: chronic/long-term; duration: 28 days
[9] = test system: Typhlodromus pyri; experiment: LR50; higher = less toxic; details: not reported; mortality
[10] = test system: Aphidius rhopalosiphi; experiment: LR50; higher = less toxic; details: not reported; mortality

O=C(O)COc1ccc2ccccc2c1 [2-Naphthoxyacetic acid]
LD50 [1]: > 2000 mg/kg-day
LD50 ([2]; acute, oral, F, mortality): 1420 mg/kg-day
NOAEL ([2]; developmental, development): 60 mg/kg-day
NOAEL ([2]; reproduction developmental, mortality): 30 mg/kg-day
NOAEL ([2]; subchronic, duration: 90 days, oral, organ weight): 10 mg/kg-day
NOEC [3]: 6.7 mg/L
NOAEL [4]: 60 mg/kg-day
LC50 [5]: 2.39 µg/mL (≈ 11.8 µM)
LC50 [6]: 0.045 g/ha
NOEC [7]: 10 mg/kg-day
NOEC [8]: 10 mg/L
LR50 [9]: > 80 g/ha
LR50 [10]: > 100 g/ha
